The results in this text go back to patent publication EP3970691A1, “SLIMMING COSMETIC COMPOSITIONS CONTAINING ONE OR MORE LIMONOIDS” (C.F.E.B. Sisley, priority 2020, dated 2022).

Common to all, as to assay type: cell-based
In data set [1] the test system is 3T3-L1. The data set is described as follows: Oil Red O neutral lipid quantification (spectrophotometry) in differentiating 3T3-L1. The settings on record: for quantité de lipides: vs control. From the text: Brièvement : Des cellules 3T3-L1 ont été ensemencés dans leur milieu d'entretien. A confluence, les cellules ont été mises au contact des produits à tester dans un milieu permettant la différentiation des pré-adipocytes en adipocytes via la présence d'un cocktail d'induction. A l'issue du contact, les lipides neutres stockés dans les gouttelettes lipidiques des adipocytes ont été marqués par la coloration Huile Rouge O. Les lipides neutres ont été extraits (extraction à l'isopropanol) et dosés par spectrophotométrie. Les densités optiques obtenues sont proportionnelles à la quantité de lipides.

The target of data set [2] is T1, CERT (Mus musculus, UniProt Q9EQG9).
T1 construct: endogenous in cells; host or cells: 3T3-L1
T1 sequence (Q9EQG9 1-624): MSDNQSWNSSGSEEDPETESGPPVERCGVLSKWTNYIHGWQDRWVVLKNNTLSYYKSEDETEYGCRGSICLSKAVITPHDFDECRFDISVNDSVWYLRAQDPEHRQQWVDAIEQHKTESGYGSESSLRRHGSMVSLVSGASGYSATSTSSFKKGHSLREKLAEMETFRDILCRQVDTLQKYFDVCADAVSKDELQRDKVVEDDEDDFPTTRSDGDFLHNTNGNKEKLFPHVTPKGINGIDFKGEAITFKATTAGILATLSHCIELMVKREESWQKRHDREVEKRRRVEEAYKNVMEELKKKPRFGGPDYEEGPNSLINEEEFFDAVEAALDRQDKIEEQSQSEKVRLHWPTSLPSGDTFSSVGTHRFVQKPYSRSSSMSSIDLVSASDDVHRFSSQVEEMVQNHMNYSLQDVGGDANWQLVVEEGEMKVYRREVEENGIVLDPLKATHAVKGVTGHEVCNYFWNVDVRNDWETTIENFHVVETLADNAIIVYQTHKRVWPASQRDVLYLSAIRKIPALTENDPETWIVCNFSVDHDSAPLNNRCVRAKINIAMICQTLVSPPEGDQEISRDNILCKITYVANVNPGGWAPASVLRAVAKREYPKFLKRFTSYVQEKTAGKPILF
The data set is described as follows: Dose-response on basal 3T3-L1: total ceramide assay (DAG kinase) as readout of CERT inhibition. The settings on record: 3T3-L1 in basal state, total ceramides; data not shown. From the text:
(§1) Les taux de céramides dans les extraits de lipides cellulaires sont mesurés par la méthode enzymatique de la DAG kinase. Le principe de ce dosage est de phosphoryler les céramides avec de l'ATP radiomarqué grâce à l'action de cette enzyme, puis de quantifier les radiations obtenues pour chaque échantillons, permettant ainsi de doser la quantité totale de céramides présents initialement dans les échantillons. Les résultats sont exprimés en fmol de céramides et normalisés par rapport à la quantité de phospholipides totaux dans les échantillons, exprimée en nmol.
(§2) La quantité de phospholipides totaux contenue dans les extraits cellulaires est dosée afin de normaliser les céramides présents dans chaque échantillon. La quantité de phospholipides totaux est mesurée par spectrophotométrie : l'absorbance est mesurée à 660 nm, puis calculée grâce à une gamme de sodium phosphate dibasique (Sigma-Aldrich) permettant de déterminer la concentration en phosphates dans chaque échantillon.

Data set [3] deals with T1, CERT. Put plainly: Total ceramides and sphingomyelins during 3T3-L1 differentiation under gedunin treatment. As to the method: (§3) Le protocole de différenciation se déroule en deux étapes : une phase d'induction (2 jours) suivie d'une étape d'accumulation (2 à 5 jours). • Milieu d'induction : Il s'agit du milieu d'entretien des 3T3-L1 supplémenté de 1µM d'Insuline; 1.25µM de Dexaméthasone et 250µM d' IBMX (3-isobutyl-1-methylxanthine) • Cocktail d'accumulation : Ce milieu est composé du milieu d'entretien des 3T3-L1 supplémenté de 1µM d'Insuline ;
Les lipides ont été extraits et les échantillons préparés pour la chromatographie liquide couplée à la spectrométrie de masse (cf. Bligh E.G. et al, 1959).
as §1, §2
Afin de déterminer si la GED est capable d'inhiber le transport des céramides du RE vers le Golgi au cours du processus de différenciation des 3T3-L1, ces cellules ont été mises en contact de la GED au cours des deux phases du protocole (Schéma 3). Puis les céramides totaux et les sphingomyélines ont été quantifiés (figure 2A).

For data set [4], the system named is 3T3-L1. Put plainly: RT-qPCR expression of adipogenesis and adipocyte function genes during 3T3-L1 differentiation. The protocol: as §3
(§4) L'extraction des ARNm à partir de ces échantillons est réalisée avec un kit RNeasy® Mini Kit, commercialisé par QIAGEN®.
(§5) La rétrotranscription des ARN extraits des échantillons en ADNc est réalisée selon le protocole suivant : les ARN sont incubés à 50°C pendant 30 minutes afin de réaliser la rétro-transcription des ARN en présence de la réversetranscriptase M-MLV; puis à 95°C pendant 15 minutes afin d'inhiber l'activité de la rétrotranscriptase, de dégrader les amorces d'ARN et d'activer la polymérase.
(§6) La PCR quantitative est réalisée dans Le LightCylcer 1.5 (Roche) grâce au kit FastStart DNA Master plus SYBR Green I (Roche).
(§7) L'inhibition de CERT, et donc de la synthèse de SM, par le traitement à la GED ayant été validée, la question a donc ensuite été de savoir si cela avait un effet sur la capacité de différenciation des cellules. Le même protocole de différenciation a donc été appliqué, associé ou non à un traitement à la Ged (figure 2A), et les niveaux d'expression de gènes impliqués d'une part dans l'adipogenèse et d'autre part dans la fonction adipocytaire ont été mesurés. Par ailleurs, les analyses transcriptomiques ont été combinées avec une analyse phénotypique des échantillons : un marquage à l'huile rouge, qui, en marquant les lipides, permet de visualiser les gouttelettes lipidiques dans les cellules et donc de savoir si celles-ci sont différenciées et fonctionnelles.
Les niveaux d'expression des gènes Pref1, comme marqueur pré-adipocytaire, ainsi que de PPARγ, C/EBPα et C/EBPδ qui sont des FT clés dans l'adipogenèse, ont été mesurés.

Data set [5] deals with 3T3-L1. The data set is described as follows: Oil Red staining of lipid droplets in 3T3-L1 (microscopy). The conditions noted are these: AdJ7, 10µM in induction (GED1) or accumulation (GED2) phase.
From the text: Afin de visualiser les gouttelettes lipidiques contenues dans les adipocytes matures et donc de quantifier le niveau de différenciation des cellules, les lipides sont marqués avec de l'huile rouge. L'huile rouge est un colorant liposoluble qui colore les lipides neutres et donc les triglycérides stockés dans les gouttelettes.
as §7

In the next data set the test system is pré-adipocytes humains. The data set is described as follows: RT-qPCR gene expression in differentiating human pre-adipocytes. The conditions noted are these: treated during induction phase. The protocol:
Comme pour les 3T3-L1, le protocole de différenciation des PrAH se déroule en deux étapes : les cellules sont exposées à milieu d'induction puis à un milieu d'accumulation, ces deux phases durant 10 jours chacune.
Le milieu d'induction est composé du milieu d'entretien supplémenté de l'insuline à 1µM, de l'IBMX à 500µM, de la dexaméthasone à 1µM ainsi que de l'indométhacine à 200µM. Le milieu d'accumulation est quant à lui composé du milieu d'entretien auquel on ajoute de l'insuline à 1µM.
as §4, §5, §6
Dans un premier temps, les cellules ont donc été traitées avec de la Gédunine durant la phase d'induction. Le niveau d'expression de gènes impliqués dans l'adipogenèse et dans la fonction adipocytaire a été évalué. Dans un deuxième temps, les cellules ont été colorées avec de l'Huile Rouge afin de visualiser leur capacité à stocker des lipides au sein de leurs gouttelettes lipidiques.

Where [6] appears, read: GED1 and GED2, stage AdJ7, vs CTRL.

Take `CC1(C)O[C@H]2CC(=O)OC[C@]23[C@H]2CC[C@@]4(C)[C@H](c5ccoc5)OC(=O)[C@H]5O[C@]54[C@]2(C)C(=O)C[C@@H]13` [Limonine, limonine]: the “% variation versus contrôle” value in the data set on 3T3-L1 [1] (Limonine 10µM) was -10%; in the data set on 3T3-L1 [1] (Limonine 2OµM), -16,5%. Besides, the entries for the “Moyenne ± écart type (Densité optique à 490nm)” value with 3T3-L1 [1] (Limonine 10µM) and with 3T3-L1 [1] (Limonine 2OµM) were 0,492 ± 0,061 and 0,455 ± 0,037, respectively. In addition, in the data set with 3T3-L1 [1] (limonin experiment, tested concentrations (10 and 20 µM)), the cytotoxicité result is “Aucune cytotoxicité”. Further, the quantité de lipides entry in the data set on 3T3-L1 [1] (limonin experiment) and in the data set with 3T3-L1 [1] (mandarin extract experiment) was “baisse dose dépendante de la quantité de lipides” throughout.

With `CC(=O)O[C@@H]1C[C@H]2C(C)(C)C(=O)C=C[C@]2(C)[C@H]2CC[C@@]3(C)[C@H](c4ccoc4)OC(=O)[C@H]4O[C@]43[C@@]21C` [Gédunine, gédunine], the “dose de GED à partir de laquelle les céramides commencent à s'accumuler” value at CERT [2] is given as ≥ 10 µM. The céramides totaux result at CERT [3] (3T3-L1, 10µM in induction phase, then control accumulation medium without GED) is listed as “ne présentent pas d'accumulation des céramides”; at CERT [3] (3T3-L1, 10µM, AdJ2 treated in induction phase and AdJ7 treated in accumulation phase, vs control), “accumulation des céramides significative”. In addition, the “accumulation de SM” value at CERT [3] (3T3-L1, 10µM, after 5 days of accumulation, treatment in first or second step) is “diminuer significativement l'accumulation de SM”. Besides, the “quantité de SM” value on CERT [3] (3T3-L1, 10µM, early stage, just before accumulation step) is “légère diminution de la quantité de SM, toutefois non significative”. The “expression de PPARγ” value is recorded as “diminution drastique de l'induction de l'expression de PPARγ” in the data set with 3T3-L1 [4] (10µM in accumulation phase); “diminution de cette induction de l'expression de PPARγ” in the data set with 3T3-L1 [4] (10µM in induction phase, stages AdJ2 and AdJ7). Moreover, the “expression de CD36, FAS, LPL et adiponectine” value with 3T3-L1 [4] (10µM in induction or accumulation phase, stages AdJ2 and AdJ7) is given as “diminue l'induction de l'expression de ces 4 gènes”; in the data set on 3T3-L1 [4] (AdJ7 GED2 (10µM in accumulation phase)), “diminution drastique”. For the same compound, the “expression de C/EBPδ” value with 3T3-L1 [4] (10µM, stage AdJ2) is “semble diminuer, toutefois non-significativement”. Further, the “expression de Pref1” value with 3T3-L1 [4] (GED1 (10µM in induction phase), stage AdJ2) is on record as “diminue de la même manière que chez les CTRL”; with 3T3-L1 [4] (GED1 (10µM in induction phase), stage AdJ7) it was “n'est plus réprimé”; with 3T3-L1 [4] (GED2 (10µM in accumulation phase), stage AdJ7), “identique à celle des CTRL”. Also, the “expression de C/EBPα” value in the data set with 3T3-L1 [4] (setting [6]) is reported as “diminuée”. Also, the “niveau d'expression de C/EBPδ” value with 3T3-L1 [4] (setting [6]) was “significativement augmenté”. Besides, in the data set with 3T3-L1 [5], the “marquage des lipides neutres par l'huile rouge” value is listed as “ne sont plus marquées”. In addition, the “expression du marqueur pré-adipocytaire Pref1” value in the data set on pré-adipocytes humains (CTRL vs GED) is “aucune différence significative”. The “expressions de AdipoQ, FAS et LPL” value in the data set with pré-adipocytes humains (vs CTRL) is on record as “diminution des expressions de AdipoQ, FAS et LPL”. The “induction de l'expression de PPARγ” value with pré-adipocytes humains (vs CTRL) is recorded as “fortement diminuée”.
